Experimental findings from US6951652B2, “Vaccine for prevention of gram-negative bacterial infections and endotoxin related diseases” (BioSynth S.r.l., priority 1998, dated 2005) are described below.

Ends that are not written are not given here.

This assay in a line: In vitro saturation of lipid A binding site by peptide. As to conditions: stoichiometric saturation.

“Lys-Thr-Lys-Cys-Lys-Phe-Leu-Lys-Lys-Cys (KTKCKFLKKC; also: cyclic, ring type not given here) [SAEP2]”: the “affinity of binding to lipid A binding site” value is “high affinity”.
